# Experimental data taken from patent publication US9351973B2, “Pyrazolopyridyl compounds as aldosterone synthase inhibitors” (Merck Sharp & Dohme Corp., priority 2011, dated 2016).
# Legend:
# [1] = molecular target: human CYP11B1 (Homo sapiens (Human), UniProt P15538); experiment: V79-Human-CYP11B1 cell assay (cortisol formation from 11-deoxycortisol, HTRF); type: cell-based; conditions: for IC50: V79 cells stably expressing human CYP11B1, 250 nM 11-deoxycortisol, 3 hours
# Description: (§1) Methods for V79-Human-CYP11B2 and V79-Human-CYP11B1 Assays: V79 cell lines stably expressing the either the human CYP11B2 or the human CYP11B1 enzyme were generated using a standard transfection protocol. V79 cells were transfected with plasmids pTriEx3-Hygro-hCyp11B2 or pTriEx3-Hygro-hCyp11B1 using Lipofectamine2000 reagent. V79 cells that stably express the human CYP11B2 or human CYP11B1 enzyme were selected for and maintained in DMEM supplemented with 10% FBS and 400 μg/mL hygromycin for ˜2 weeks. Single cell clones were generated by infinite dilution in DMEM supplemented with 10% FBS and 400 μg/mL hygromycin until single colonies were obtained. Clones V79-hCYP11B2-CLE9 and V79-hCYP11B1-8CLC7, were determined to produce the most aldosterone and cortisol, respectively, and were selected for inhibitor screening. For testing of inhibitors, cells were harvested at 80% confluency with 0.5% Trypsan-EDTA, washed once in PBS, and reconstituted in DMEM+0.1% BSA media at a cell concentration of 600,000 cells/mL for the CYP11B2 assay and 280,000 cells/mL for the CYP11B1 assay. 25 μL of cells were added to a 384 well tissue culture treated plate and mixed with 0.3 μL of inhibitor or DMSO (1% final DMSO concentration) for 1 hour at 37° C., 5% CO2. After pre-incubation with inhibitor, the reaction was initiated by adding 5 μL of substrate (final concentration of 125 nM 11-deoxycorticosterone for the CYP11B2 assay or 250 nM 11-deoxycortisol for the CYP11B1 assay). The reaction was carried out for 3 hours at 37° C., 5% CO2 and was stopped by harvesting the supernatants. The amount of product in the supernatant (aldosterone for CYP11B2 assay and cortisol for the CYP11B1 assay) was measured using HTRF-based assay kit (Aldosterone HTRF-CisBio#64ALDPEB, Cortisol HTRF-CisBio #63IDC002-CORT). IC50s for the inhibitor were determined by plotting the amount of product formed against the concentration of inhibitor using sigmoidal dose-response curve (variable slope) fit in GraphPad.
# [2] = molecular target: human CYP11B2 (Homo sapiens (Human), UniProt P19099); experiment: V79-Human-CYP11B2 cell assay (aldosterone formation from 11-deoxycorticosterone, HTRF); type: cell-based; conditions: for IC50: V79 cells stably expressing human CYP11B2, 125 nM 11-deoxycorticosterone, 3 hours
# Description: as §1
# human CYP11B1, sequence (P15538 25-503): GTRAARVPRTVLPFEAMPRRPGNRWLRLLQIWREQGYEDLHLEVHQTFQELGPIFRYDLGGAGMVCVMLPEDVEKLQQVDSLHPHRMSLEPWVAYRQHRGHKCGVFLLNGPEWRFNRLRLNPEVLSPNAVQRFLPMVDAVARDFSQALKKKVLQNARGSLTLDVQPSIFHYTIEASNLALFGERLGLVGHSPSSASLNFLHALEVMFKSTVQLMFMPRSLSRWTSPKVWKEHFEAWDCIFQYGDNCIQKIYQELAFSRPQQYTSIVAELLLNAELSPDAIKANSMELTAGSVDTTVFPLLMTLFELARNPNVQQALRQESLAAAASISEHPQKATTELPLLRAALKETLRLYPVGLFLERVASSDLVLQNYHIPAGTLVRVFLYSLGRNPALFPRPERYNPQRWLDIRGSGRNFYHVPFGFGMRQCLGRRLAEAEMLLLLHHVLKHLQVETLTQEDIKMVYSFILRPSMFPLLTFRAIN
# human CYP11B2, sequence (P19099 25-503): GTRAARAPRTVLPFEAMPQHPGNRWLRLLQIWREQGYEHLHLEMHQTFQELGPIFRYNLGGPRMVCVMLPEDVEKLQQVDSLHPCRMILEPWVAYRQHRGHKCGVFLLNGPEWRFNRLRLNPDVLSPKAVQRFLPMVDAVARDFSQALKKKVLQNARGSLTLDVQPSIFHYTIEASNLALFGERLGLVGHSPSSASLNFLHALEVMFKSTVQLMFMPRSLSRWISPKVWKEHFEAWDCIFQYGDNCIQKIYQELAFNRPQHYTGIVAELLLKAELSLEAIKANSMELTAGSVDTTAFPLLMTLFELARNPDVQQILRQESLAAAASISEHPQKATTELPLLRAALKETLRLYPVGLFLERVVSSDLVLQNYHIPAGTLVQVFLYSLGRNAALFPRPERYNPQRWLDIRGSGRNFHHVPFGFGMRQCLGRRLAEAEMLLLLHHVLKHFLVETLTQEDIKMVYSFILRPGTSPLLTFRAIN
Structure (SMILES),IC50 [1] [nM],inhibition at 1 µM [2] [%],IC50 [2] [nM],inhibition at 10 µM [1] [%]
"N#Cc1c(-c2cncc(Cl)c2)nn2c1NC(=O)CC2 [Example 26, 2-(5-chloropyridin-3-yl)-5-oxo-4,5,6,7-tetrahydropyrazolo[1,5-a]pyrimidine-3-carbonitrile]",1070,51,–,–
"O=C1CCn2nc(-c3cncc(F)c3)c(C3CC3)c2N1 [Example 19, 3-cyclopropyl-2-(5-fluoropyridin-3-yl)-6,7-dihydropyrazolo[1,5-a]pyrimidin-5(4H)-one]",–,–,102,38
"Cc1c(-c2cncc(F)c2)nn2c1NC(=O)CC2 [Example 15, 2-(5-fluoropyridin-3-yl)-3-methyl-6,7-dihydropyrazolo [1,5-a]pyrimidin-5(4H)-one]",3630,–,30.9,–
"Cc1cncc(-c2nn3c(c2C#N)NC(=O)CC3)c1 [Example 25, 2-(5-methylpyridin-3-yl)-5-oxo-4,5,6,7-tetrahydropyrazolo[1,5-a]pyrimidine-3-carbonitrile]",–,61,–,–
"CCc1c(-c2cncc(F)c2)nn2c1NC(=O)CC2 [Example 13, 3-ethyl-2-(5-fluoropyridin-3-yl)-6,7-dihydropyrazolo[1,5-a]pyrimidin-5(4H)-one]",1350,–,11.7,–
"Cc1cncc(-c2nn3c(c2C2CC2)NC(=O)CC3)c1 [Example 10, 3-cyclopropyl-2-(5-methylpyridin-3-yl)-6,7-dihydropyrazolo[1,5-a]pyrimidin-5(4H)-one]",–,–,13.2,71

# Next, values leading:
IC50 [1] [nM],inhibition at 1 µM [2] [%],IC50 [2] [nM],inhibition at 10 µM [1] [%],Structure (SMILES)
1820,–,19.1,–,"Cc1c(-c2cncc(F)c2)nn2c1N(C)C(=O)CC2 [Example 12, 2-(5-fluoropyridin-3-yl)-3,4-dimethyl-6,7-dihydropyrazolo[1,5-a]pyrimidin-5(4H)-one]"
282,–,2.2,–,"Cc1cncc(-c2nn3c(c2C)NC(=O)CC3)c1 [Example 7, 3-methyl-2-(5-methylpyridin-3-yl)-6,7-dihydropyrazolo[1,5-a]pyrimidin-5(4H)-one]"
2340,–,7.8,–,"CCc1c(-c2cncc(C)c2)nn2c1N(C)C(=O)CC2 [Example 9, 3-ethyl-4-methyl-2-(5-methylpyridin-3-yl)-6,7-dihydropyrazolo[1,5-a]pyrimidin-5(4H)-one]"
3720,–,9.8,–,"Cc1cncc(-c2nn3c(c2C)N(C)C(=O)CC3)c1 [Example 8, 3,4-dimethyl-2-(5-methylpyridin-3-yl)-6,7-dihydropyrazolo[1,5-a]pyrimidin-5(4H)-one]"
